# Assay results as given in patent publication US20080268435A1, “Brca1 Markers” (THE QUEEN'S UNIVERSITY OF BELFAST, priority 2004, published 2008).
# Tests used:
# Format in all cases: cell-based
# HCC-EV1 cell line = experiment: 72 hour dose inhibition study of etoposide in HCC-EV1 cells, psoriasin siRNA vs scrambled sequence; conditions: BRCA1 deficient HCC-EV cells, 72 h exposure, from IC50 values, three independent experiments
# Protocol: (§1) Cells were either untreated (lanes 1 and 2) or treated with 1 μM etoposide for 24 hours. The blot was reprobed for GAPDH as a loading control, (b) A Western blot evaluating the expression of psoriasin protein in the HCC-EV1 cell line (lanes 1 and 3) and the HCC-BR116 cell line (lanes 2 and 4). Cells were either untreated (lanes 1 and 2) or treated with 1 μM etoposide for 24 hours. The blot was reprobed for GAPDH as a loading control, (c) A 72 hour dose inhibition study investigating the effect of psoriasin expression on the response to etoposide in the HP1 and MDA-MB-231-zeo cell lines. The IC50 values were calculated from the sigmoidal dose response curves. […] (Symbols □=HP1 cell line (psoriasin expression) ▴=MDA-MB-231-zeo (empty vector control), (d) A 72 hour dose inhibition study investigating the effect of loss of psoriasin expression on the response to etoposide in the HCCEV1 cell line. The IC50 values were calculated from the sigmoidal dose response curves. The results represent three independent experiments. (Symbols ▴=siRNA to psoriasin □=scrambled sequence). […]
# For drug sensitivity assays HCC-EV and HCCBR cells were seeded onto 24-well tissue culture plates at a density of 100,000 cells per well. […] After 72 hours of continuous drug exposure, cells were detached with trypsin and counted using a Z2 particle and size analyser (Coulter, Miami, Fla.). […]
# [1] = test system: psoriasin (S100A7) mRNA and protein in HCC-EV1 and HCC-BR116 cells; experiment: Northern and Western blot of psoriasin expression after etoposide treatment; conditions: BRCA1 deficient cells (HCC-EV1), 1 μM etoposide for 24 hours
# Protocol: Cells were either untreated (lanes 1 and 2) or treated with 1 μM etoposide for 24 hours. The blot was reprobed for GAPDH as a loading control, (b) A Western blot evaluating the expression of psoriasin protein in the HCC-EV1 cell line (lanes 1 and 3) and the HCC-BR116 cell line (lanes 2 and 4). Cells were either untreated (lanes 1 and 2) or treated with 1 μM etoposide for 24 hours. The blot was reprobed for GAPDH as a loading control, (c) A 72 hour dose inhibition study investigating the effect of psoriasin expression on the response to etoposide in the HP1 and MDA-MB-231-zeo cell lines. The IC50 values were calculated from the sigmoidal dose response curves. The results represent three independent experiments. (Symbols □=HP1 cell line (psoriasin expression) ▴=MDA-MB-231-zeo (empty vector control), (d) A 72 hour dose inhibition study investigating the effect of loss of psoriasin expression on the response to etoposide in the HCCEV1 cell line. The IC50 values were calculated from the sigmoidal dose response curves. The results represent three independent experiments. (Symbols ▴=siRNA to psoriasin □=scrambled sequence). […]
# [2] = test system: HP1 and MDA-MB-231-zeo cell lines; experiment: 72 hour dose inhibition study of etoposide, psoriasin-expressing HP1 vs empty vector MDA-MB-231-zeo cells; conditions: HP1 (exogenous psoriasin) vs MDA-MB231-zeo vector control; 72 h continuous exposure; from IC50 values; three independent experiments
# Protocol: as §1
# The HCC-EV1 cell line was treated with scrambled or psoriasin specific siRNA and after 24 hours seeded at 100,000 cells per well on 24 well tissue culture plates. […] After 72 h of continuous drug exposure, cells were detached with trypsin, and counted using a Z2 particle and size analyzer (Coulter, Miami, Fla.). […]
compound,measurement,setting,value
COc1cc([C@@H]2c3cc4c(cc3[C@@H](O[C@@H]3O[C@@H]5CO[C@@H](C)O[C@H]5[C@H](O)[C@H]3O)[C@H]3COC(=O)[C@H]23)OCO4)cc(OC)c1O [etoposide],increase in resistance to etoposide induced by inhibition of endogenous psoriasin,HCC-EV1 cell line,greater than 20 fold
same,expression of psoriasin mRNA and protein following etoposide treatment,[1],enhanced expression
same,increase in sensitivity to etoposide induced by expression of psoriasin,[2],4000 fold
